system: LPS induced TNF release; test: Lipopolysaccharide-Activated THP1 Cell TNF Production Assay; format: cell-based; settings: Homo sapiens, THP-1
Protocol: Lipopolysaccharide-Activated THP1 Cell TNF Production Assay
THP1 cells are resuspended in fresh THP1 media (RPMI 1640, 10% heat-inactivated FBS, 1×PGS, 1×NEAA, plus 30 μM βME) at a concentration of 1E6/mL. One hundred microliters of cells per well are plated in a polystyrene 96-well tissue culture. One microgram per mL of bacterial LPS is prepared in THP1 media and is transferred to the wells. Test compounds are dissolved in 100% DMSO and are serially diluted 3 fold in a polypropylene 96-well microtiter plate (drug plate). HI control and LO control wells contain only DMSO. One microliter of test compound from the drug plate followed by 10 μL of LPS are transferred to the cell plate. The treated cells are induced to synthesize and secrete TNF-α at 37° C. for 3 h. Forty microliters of conditioned media are transferred to a 96-well polypropylene plate containing 110 μL of ECL buffer (50 mM Tris-HCl pH 8.0, 100 mM NaCl, 0.05% Tween 20, 0.05% NaN3 and 1%FBS) supplemented with 0.44 nM MAB610 monoclonal Ab (R&D Systems), 0.34 nM ruthenylated AF210NA polyclonal Ab (R&D Systems) and 44 μg/mL sheep anti-mouse M280 Dynabeads (Dynal). After a 2 h incubation at room temperature with shaking, the reaction is read on the ECL M8 Instrument (IGEN Inc.). A low voltage is applied to the ruthenylated TNF-α immune complexes, which in the presence of TPA (the active component in Origlo), results in a cyclical redox reaction generating light at […]. The amount of secreted TNF-α in the presence of compound compared with that in the presence of DMSO vehicle alone (HI control) is calculated using the formula: % control (POC)=(cpd−average LO)/(average HI−average LO)*100. Data (consisting of POC and inhibitor concentration in μM) is fitted to a 4-parameter equation (y=A+((B−A)/(1+((x/C)^D))), where A is the minimum y (POC) value, B is the maximum y (POC), C is the x (cpd concentration) at the point of inflection and D is the slope factor) using a Levenburg-Marquardt non-linear regression algorithm.

IC50, ≤ 20 µM:
C[C@H](Cc1cccc(CN)c1)Nc1nccc(N2CCCn3c2nc(-c2ccccc2)cc3=O)n1 [9-{2-[2-(3-aminomethyl-phenyl)-1(R)-methyl-ethylamino]-pyrimidin-4-yl}-2-phenyl-6,7,8,9-tetrahydro-pyrimido[1,2-a]pyrimidin-4-one]
Cc1ccc(-c2cc(=O)n3c(n2)N(c2ccnc(N[C@@H](C)c4ccccc4)n2)CCC3)cc1C [Example 1, 2-(3,4-Dimethyl-phenyl)-9-[2-(1(S)-phenyl-ethylamino) -pyrimidin-4-yl]-6,7,8,9-tetrahydro-pyrimido[1,2-a]pyrimidin-4-one]
C[C@H](Nc1nccc(N2CCCn3c2nc(-c2ccccc2F)cc3=O)n1)c1ccccc1 [Example 2, 2-(2-fluorophenyl)-9-[2-(1(S)-phenyl-ethylamino)-pyrimidin-4-yl]-6,7,8,9-tetrahydro-pyrimido[1,2-a]pyrimidin-4-one]
C[C@H](Nc1nccc(N2CCCn3c2nc(-c2ccccc2C(F)(F)F)cc3=O)n1)c1ccccc1 [Example 3, 2-(2-trifluoromethylphenyl)-9-[2-(1(S)-phenyl-ethylamino) -pyrimidin-4-yl]-6,7,8,9-tetrahydro-pyrimido[1,2-a]pyrimidin-4-one]
C[C@H](Nc1nccc(N2CCCn3c2nc(-c2ccc(F)cc2)cc3=O)n1)c1ccccc1 [Example 4, 2-(4-fluorophenyl)-9-[2-(1(S)-phenyl-ethylamino)-pyrimidin-4-yl]-6,7,8,9-tetrahydro-pyrimido[1,2-a]pyrimidin-4-one]
COc1ccc(-c2cc(=O)n3c(n2)N(c2ccnc(N[C@@H](C)c4ccccc4)n2)CCC3)cc1 [Example 5, 2-(4-methoxyphenyl)-9-[2-(1(S)-phenyl-ethylamino)-pyrimidin-4-yl]-6,7,8,9-tetrahydro-pyrimido[1,2-a]pyrimidin-4-one]
C[C@H](Nc1nccc(N2CCCn3c2nc(-c2cccc([N+](=O)[O-])c2)cc3=O)n1)c1ccccc1 [Example 6, 2-(3-nitrophenyl)-9-[2-(1(S)-phenyl-ethylamino)-pyrimidin-4-yl]-6,7,8,9-tetrahydro-pyrimido[1,2-a]pyrimidin-4-one]
C[C@H](Nc1nccc(N2CCCn3c2nc(-c2cccc(N)c2)cc3=O)n1)c1ccccc1 [Example 7, 2-(3-aminophenyl)-9-[2-(1(S)-phenyl-ethylamino)-pyrimidin-4-yl]-6,7,8,9-tetrahydro-pyrimido[1,2-a]pyrimidin-4-one]
C[C@H](Nc1nccc(N2CCCn3c2nc(C(C)(C)C)cc3=O)n1)c1ccccc1 [Example 11, 2-(tert-butyl)-9-[2-(1(S)-phenyl-ethylamino)-pyrimidin-4-yl]-6,7,8,9-tetrahydro-pyrimido[1,2-a]pyrimidin-4-one]
CCc1cccc(-c2cc(=O)n3c(n2)N(c2ccnc(N[C@@H](C)c4ccccc4)n2)CCC3)c1 [Example 12, 2-(3-ethylphenyl)-9-[2-(1(S)-phenyl-ethylamino)-pyrimidin-4-yl]-6,7,8,9-tetrahydro-pyrimido[1,2-a]pyrimidin-4-one]
C[C@H](Nc1nccc(N2CCCn3c2nc(-c2ccc(Cl)c(Cl)c2)cc3=O)n1)c1ccccc1 [Example 13, 2-(3,4-dichlorophenyl)-9-[2-(1(S)-phenyl-ethylamino) -pyrimidin-4-yl]-6,7,8,9-tetrahydro-pyrimido[1,2-a]pyrimidin-4-one]
CC(Cc1cccc(CN)c1)Nc1nccc(N2CCCn3c2nc(-c2ccccc2)c(N)c3=O)n1 (stereo not shown) [Example 14, 3-Amino-9-{2-[2-(3-aminomethyl-phenyl)-1-methyl-ethylamino]-pyrimidin-4-yl}-2-phenyl-6,7,8,9-tetrahydro-pyrimido[1,2-a]pyrimidin-4-one]
O=c1c([N+](=O)[O-])c(-c2ccccc2)nc2n1CCCN2c1ccnc(NCCc2ccccc2)n1 [Example 15, 3-Nitro-9-(2-phenethylamino-pyrimidin-4-yl)-2-phenyl-6,7,8,9-tetrahydro-pyrimido[1,2-a]pyrimidin-4-one]
Nc1c(-c2ccccc2)nc2n(c1=O)CCCN2c1ccnc(NCCc2ccccc2)n1 [Example 18, 3-Amino-9-(2-phenethylamino-pyrimidin-4-yl) -2-phenyl-6,7,8,9-tetrahydro-pyrimido[1,2-a]pyrimidin-4-one]
CC(C)NCc1cccc(CC(C)Nc2nccc(N3CCCn4c3nc(-c3ccccc3)cc4=O)n2)c1 (stereo not shown) [Example 19, 9-(2-{2-[3-(Isopropylamino-methyl)-phenyl]-1-methyl-ethylamino}-pyrimidin-4-yl) -2-phenyl-6,7,8,9-tetrahydro-pyrimido[1,2-a]pyrimidin-4-one]
O=c1cc(-c2ccccc2)nc2n1CCCN2c1ccnc(NCc2ccccc2)n1 [Example 29, 9-(2-{2-(benzyl)amino}-pyrimidin-4-yl)-2-phenyl-6,7,8,9-tetrahydro-pyrimido[1,2-a]pyrimidin-4-one]
Nc1nccc(N2CCCn3c2nc(-c2ccccc2)cc3=O)n1 [Example 38, 9-(2-{2-amino}-pyrimidin-4-yl)-2-phenyl-6,7,8,9-tetrahydro-pyrimido[1,2-a]pyrimidin-4-one]
CC(Cc1cccc(CN)c1)Nc1nccc(N2CCCn3c2nc(-c2ccccc2)cc3=O)n1 (stereo not shown) [Example 44, 9-{2-[2-(3-Aminomethyl-phenyl)-1-methyl-ethylamino]-pyrimidin-4-yl}-2-phenyl-6,7,8,9-tetrahydro-pyrimido[1,2-a]pyrimidin-4-one]
CC(Cc1cccc(CO)c1)Nc1nccc(N2CCCn3c2nc(-c2ccccc2)cc3=O)n1 (stereo not shown) [Example 47, 9-{2-[2-(3-Hydroxymethyl-phenyl)-1-methyl-ethylamino]-pyrimidin-4-yl}-2-phenyl-6,7,8,9-tetrahydro-pyrimido[1,2-a]pyrimidin-4-one]
C[C@@H](Cc1cccc(CN)c1)Nc1nccc(N2CCCn3c2nc(-c2ccccc2)cc3=O)n1 [Example 49, 9-{2-[2-(3-Aminomethyl-phenyl)-1(S)-methyl-ethylamino]-pyrimidin-4-yl}-2-phenyl-6,7,8,9-tetrahydro-pyrimido[1,2-a]pyrimidin-4-one]
CC(C)NCCC1CN(c2ccnc(NCCc3ccccc3)n2)c2nc(-c3ccccc3)cc(=O)n2C1 (stereo not shown) [Example 50, 7-(2-Isopropylamino-ethyl)-9-(2-phenethylamino-pyrimidin-4-yl) -2-phenyl-6,7,8,9-tetrahydro-pyrimido[1,2-a]pyrimidin-4-one]
NCCC1CN(c2ccnc(NCCc3ccccc3)n2)c2nc(-c3ccccc3)cc(=O)n2C1 (stereo not shown) [Example 51, 7-(2-Amino-ethyl)-9-(2-phenethylamino-pyrimidin-4-yl)-2-phenyl-6,7,8,9-tetrahydro-pyrimido[1,2-a]pyrimidin-4-one]
O=C(NCCC1CN(c2ccnc(NCCc3ccccc3)n2)c2nc(-c3ccccc3)cc(=O)n2C1)OCc1ccccc1 (stereo not shown) [Example 52, {2-[6-Oxo-1-(2-phenethylamino-pyrimidin-4-yl)-8-phenyl-1,3,4,6-tetrahydro-2H-pyrimido[1,2-a]pyrimidin-3-yl]-ethyl}-carbamic acid benzyl ester]
CCOC(=O)CCC1CN(c2ccnc(NCCc3ccccc3)n2)c2nc(-c3ccccc3)cc(=O)n2C1 (stereo not shown) [Example 54, 3-[6-oxo-1-(2-phenethylamino-pyrimidin-4-yl)-8-phenyl-1,3,4,6-tetrahydro-2H-pyrimido[1,2-a]pyrimidin-3-yl]-propionic acid ethyl ester]
O=C(O)CCC1CN(c2ccnc(NCCc3ccccc3)n2)c2nc(-c3ccccc3)cc(=O)n2C1 (stereo not shown) [Example 55, 3-[6-Oxo-1-(2-phenethylamino-pyrimidin-4-yl)-8-phenyl-1,3,4,6-tetrahydro-2H-pyrimido[1,2-a]pyrimidin-3-yl]-propionic acid]
CC(C)NC(C)c1ccc(CCNc2nccc(N3CCC(=O)N4CC=C(c5ccccc5)N=C43)n2)cc1 (stereo not shown) [Example 62, 1-(2-{2[4-(1-Isopropylamino-ethyl)-phenyl]-ethylamino}-pyrimidin-4-yl)-8-phenyl-1,2,3,6-tetrahydro-pyrimido[1,2-a]pyrimidin-4-one]
CC(Cc1ccc(CN)cc1)Nc1nccc(N2CCC(=O)N3CC=C(c4ccccc4)N=C32)n1 (stereo not shown) [Example 63, 1-{2-[2-(4-Aminomethyl-phenyl)-1-methyl-ethylamino]-pyrimidin-4-yl}-8-phenyl-1,2,3,6-tetrahydro-pyrimido[1,2-a]pyrimidin-4-one]
CC(N)Cc1ccc(CC(C)Nc2nccc(N3CCC(=O)N4CC=C(c5ccccc5)N=C43)n2)cc1 (stereo not shown) [Example 64, 1-(2-{2-[4-(2-Amino-propyl)-phenyl]-1-methyl-ethylamino}-pyrimidin-4-yl)-8-phenyl-1,2,3,6-tetrahydro-pyrimido[1,2-a]pyrimidin-4-one]

Reference: patent US7504403B2, “Substituted heterocyclic compounds and methods of use” (Amgen Inc., priority 2004, dated 2009)
